{"source": "patent US7989649B2", "about": "“Tumor imaging compounds” (Emory University, priority 2002, dated 2011)", "key": {"[1]": {"test_system": "human melanoma transplants", "conditions": "cited from earlier work"}, "[2]": {"conditions": "cited from earlier work"}, "[3]": {"conditions": "normal Fischer rats, 60 minutes; cited from earlier work"}, "[4]": {"test_system": "9 L gliosarcoma tumor", "conditions": "same rodent tumor model, 60 minutes; cited from earlier work"}, "[5]": {"conditions": "nude Swiss mice bearing human melanoma transplants, 60 minutes"}, "[6]": {"conditions": "healthy Copenhagen rats, 60 minutes"}}}
{"molecule": "CC(C)(N)C(=O)O", "note": "[AIB, α-aminoisobutyric acid]", "values": [{"measurement": "mean RC in pancreas and kidneys", "setting": "[1]; mice, within 5-15 minutes post-injection", "result": "greater than 1.8"}, {"measurement": "mean RC in pancreas and kidneys", "setting": "[2]; rats, within 5-15 minutes post-injection", "result": "greater than 1.8"}]}
{"molecule": "CC(C)(N)C(=O)O", "note": "[[^14C]AIB]", "values": [{"measurement": "mean RC, brain", "setting": "[1]; [5]", "result": 0.23}, {"measurement": "mean RC, kidneys", "setting": "[1]; [5]", "result": 3.4}, {"measurement": "mean RC, pancreas", "setting": "[1]; [5]", "result": 8.6}]}
{"molecule": "N[C@]1(C(=O)O)C[C@@H](F)C1", "note": "[trans-[^18F]FACBC, trans-1-amino-3-[^18F]fluorocyclobutyl-1-carboxylic acid]", "values": [{"measurement": "pancreatic uptake", "setting": "[3]", "result": 3.4, "unit": "% ID/g"}]}
{"molecule": "CC([11CH3])(N)C(=O)O", "note": "(stereo not drawn) [[^11C]AIB, [^11C]α-aminoisobutyric acid]", "values": [{"measurement": "mean relative concentration (mean RC), brain", "setting": "[2]; [6]", "result": 0.2}, {"measurement": "mean relative concentration (mean RC), kidneys", "setting": "[2]; [6]", "result": 10.3}, {"measurement": "mean relative concentration (mean RC), pancreas", "setting": "[2]; [6]", "result": 6.0}]}
{"molecule": "OC[C@H]1OC(O)[C@H]([18F])[C@@H](O)[C@@H]1O", "note": "(stereo partly drawn) [[^18F]FDG, 2-[^18F]fluorodeoxyglucose]", "values": [{"measurement": "uptake in normal brain", "setting": "[4]", "result": 1.30, "unit": "% ID/g"}, {"measurement": "uptake in tumor tissue", "setting": "[4]", "result": 1.05, "unit": "% ID/g"}]}
{"molecule": "CN1C(C)(C(=O)OC(C)(C)C)COS1(=O)=O", "note": "(stereo not drawn) [Compound 14b, 3,4-dimethyl-1,2,3-oxathiazolidine-4-carboxylic acid tert-butyl ester 2,2-dioxide]", "values": [{"measurement": "melting point", "result": "54 to 55", "unit": "°C"}]}
